Laboratory results taken from patent publication US12213860B2, “Method for separating mammalian sperm, artificial insemination method, and in vitro fertilization method” (Hiroshima University, priority 2017, dated 2025).

Legend:
Type in all cases: cell-based
[1] = system: bovine sperm; experiment: Percentages of X-sperm and Y-sperm in floating bovine sperm by real-time PCR
Method: A frozen bovine semen provided by the Oita Prefectural Agriculture, Forestry and Fisheries Research Center was used. The frozen sperm were melted, and washed with an albumin-free HTF medium. The bovine sperm were incubated in a medium prepared by adding albumin and a TLR7 ligand to HTF at 37° C., 5% CO2 for 1 hour. The TLR7 ligand used was R-848 or imiquimod R-837 (hereinafter referred to as R-837). The content of R-848 was 0 μM, 0.003 μM, 0.03 μM, 0.3 μM, or 3 μM. The content of R-837 was 0.003 μM, 0.03 μM, 0.3 μM, 3 μM, 30 μM, or 300 μM. Then, after collecting the floating sperm in the upper layer and extracting DNA, the percentages of X-sperm and Y-sperm were determined by real-time PCR.

[2] = system: pig sperm; experiment: Percentages of X-sperm and Y-sperm in floating pig sperm by real-time PCR; settings: R-848 0.3 μM, 2 hours
Method: Pig sperm were incubated in a medium prepared by adding cysteine, glycine, and a TLR7 ligand to the Modena solution at 37° C., 5% CO2, 5% O2 for 2 hours. The TLR7 ligand used was R-848. The content of R-848 was 0 μM or 0.3 μM. After collecting the floating sperm in the upper layer and extracting DNA, the percentages of X-sperm and Y-sperm were determined by real-time PCR.

[3] = system: bovine sperm; experiment: Bovine in vitro fertilization with upper layer sperm; fertilization, blastocyst rate and sexing by real-time PCR; settings: bovine IVF, upper layer sperm from 0.03 μM R-848 treatment group
Method: Bovine in vitro fertilization was performed using the sperm in the upper layer rich in Y-sperm from the 0.03 μM R-848 treatment group. […] Next, sexing of the blastocyst embryos was performed by real-time PCR.

[4] = system: mouse sperm; experiment: Separation of mouse sperm by hypergravity load (centrifugation) after TLR7 ligand incubation; X-/Y-sperm percentages in upper and lower layer; settings: R-848 0.3 μM; for percentage of X-sperm in the lower layer of the medium: 30% of the lower layer; for percentage of Y-sperm in the upper layer of the medium: 30% of the upper layer
Method: Mouse sperm were incubated in a medium (500 μL) prepared by adding albumin and a TLR7 ligand to an embryo culture medium (HTF) at 37° C., 5% CO2 for 1 hour. The TLR7 ligand used was Resiquimod R-848 (hereinafter referred to as R-848). The content of R-848 was 0.3 μM. After 30 minutes, the media were centrifuged using a centrifuge (product name: Tabletop Micro Refrigerated Centrifuge Model 3520, produced by KUBOTA Corporation Co., Ltd.) at 37° C. for 30 minutes. The centrifugation was at a centrifugal force of 50×g, 100×g, or 500×g. For comparison, a system without centrifugation (0×g) was also prepared. After centrifugation, 150 μL of the upper layer (30% of the upper layer) of each of the media was collected, and the percentages of X-sperm and Y-sperm in each of the media were determined in the same manner as described above. In addition, 150 μL of the lower layer (30% of the lower layer) of each of the media was collected, and the percentages of X-sperm and Y-sperm in each of the media were determined in the same manner as described above.

[5] = system: mouse sperm; experiment: Mouse in vitro fertilization with upper and lower layer sperm separated at 50×g; 2-cell, blastocyst embryo, XX/XY chromosomes; settings: for 2-cell (%), (number of 2-cell/number of eggs)×100 / Blastocyst embryo (%), (number of blastocyst embryos/number of 2-cell)×100 / Blastocyst embryo (number) / XX chromosomes (%) of blastocyst embryos / XX chromosomes (number) of blastocyst embryos / XY chromosomes (%) of blastocyst embryos / XY chromosomes (number) of blastocyst embryos / 2-cell (number), observed cleavages in 24 hours: R-848 0.3 μM, 50×g
Method: Then, the percentages of blastocyst embryos bearing XX chromosomes or XY chromosomes were determined. In addition, a sperm population obtained by incubating in the same medium as described above at 37° C. for 60 minutes without addition of the TLR7 ligand and without centrifugation (non-treatment group) was subjected to in vitro fertilization in the same manner as described above to form a blastocyst embryo. Then, the percentages of blastocyst embryos bearing XX chromosomes or XY chromosomes were determined. In the column “2-cell” in Table 3, “number” represents number of observed cleavages in 24 hours, while “%” represents “(number of 2-cell/number of eggs)×100.” In the column “blastocyst embryo,” “number” represents number of formed blastocyst embryos, while “%” represents “(number of blastocyst embryos/number of 2-cell)×100.”

[6] = system: mouse sperm; experiment: Mouse in vitro fertilization with washed floating sperm; XX/XY chromosomes of embryos; settings: floating sperm from 0.3 μM treatment group
Method: The floating sperm in the non-treatment group and 0.3 μM treatment group were washed, and then subjected to in vitro fertilization. The percentage of in vitro fertilization embryo bearing XX chromosomes or XY chromosomes was determined.

[7] = system: mouse sperm; experiment: Percentages of X-sperm and Y-sperm in floating mouse sperm by real-time PCR; settings: 0.3 μM treatment group
Method: Mouse sperm were incubated in a medium prepared by adding albumin and a TLR7 ligand to an embryo culture medium (HTF) at 37° C., 5% CO2 for 1 hour. The TLR7 ligand used was Resiquimod R-848 (hereinafter referred to as R-848). The content of R-848 was 0 μM, 0.003 μM, 0.03 μM, 0.3 μM, 1.5 μM, or 3 μM. The sperm floating in the upper layer were collected, and DNA was extracted. Then, the percentages of X chromosome-bearing sperm (hereinafter referred to as X-sperm) and Y chromosome-bearing sperm (hereinafter referred to as Y-sperm) were determined by real-time PCR (polymerase chain reaction).

[8] = centrifugation at 100×g or more

Question: Which “percentage of Y-sperm in floating sperm” value ([1]; R-837 0.03 to 30 μM treatment groups) does the source give for `CC(C)Cn1cnc2c(N)nc3ccccc3c21` [R-837, imiquimod] here?
Answer: The value was at least 70%.

Question: What does the source list for `CCOCc1nc2c(N)nc3ccccc3c2n1CC(C)(C)O` [R-848, resiquimod]?
Answer: percentage of Y-sperm in floating sperm [2]: ≥ 90%; blastocyst embryo transfer rate [3]: 64.3%; fertilization rate [3]: 71.7%; male embryos (sexing of blastocyst embryos by real-time PCR) [3]: 87.8%; percentage of X-sperm in the lower layer of the medium ([4]; 0×g (without centrifugation)): exceeding 60%; percentage of Y-sperm in the upper layer of the medium ([4]; 0×g (without centrifugation)): exceeding 80%; percentage of X-sperm in the lower layer of the medium [4, 8]: below 50%; percentage of Y-sperm in the upper layer of the medium [4, 8]: about 60%; effect on the fertilization function of the sperm ([5]; centrifugation on sperm incubated in medium supplemented with TLR7 ligand (R-848 0.3 μM, 50×g) vs non-treatment group): no effect; 2-cell (%), (number of 2-cell/number of eggs)×100 ([5]; lower layer group): 70%; Blastocyst embryo (%), (number of blastocyst embryos/number of 2-cell)×100 ([5]; lower layer group): 70%; Blastocyst embryo (number) ([5]; lower layer group): 48; XX chromosomes (%) of blastocyst embryos ([5]; lower layer group): 81%; XX chromosomes (number) of blastocyst embryos ([5]; lower layer group): 39; XY chromosomes (%) of blastocyst embryos ([5]; lower layer group): 19%; XY chromosomes (number) of blastocyst embryos ([5]; lower layer group): 9; 2-cell (number), observed cleavages in 24 hours ([5]; lower layer group, 99 eggs): 69; 2-cell (%), (number of 2-cell/number of eggs)×100 ([5]; upper layer group): 79%; Blastocyst embryo (%), (number of blastocyst embryos/number of 2-cell)×100 ([5]; upper layer group): 73%; Blastocyst embryo (number) ([5]; upper layer group): 59; XX chromosomes (%) of blastocyst embryos ([5]; upper layer group): 10%; XX chromosomes (number) of blastocyst embryos ([5]; upper layer group): 6; XY chromosomes (%) of blastocyst embryos ([5]; upper layer group): 90%; XY chromosomes (number) of blastocyst embryos ([5]; upper layer group): 53; 2-cell (number), observed cleavages in 24 hours ([5]; upper layer group, 103 eggs): 81; percentage of Y-sperm in floating sperm ([1]; R-848 0.03 to 0.3 μM treatment groups): ≥ 90%; XX chromosomes (%) of in vitro fertilization embryos [6]: 13%; XX chromosomes (Number) of in vitro fertilization embryos ([6]; 98 embryos tested): 13; XY chromosomes (Number) of in vitro fertilization embryos ([6]; 98 embryos tested): 85; percentage of Y-sperm in floating sperm [7]: ≥ 80%
